Data on three compounds can be found in ChEMBL document CHEMBL5696442, “Discovery of type II inhibitors of TGFβ-activated kinase 1 (TAK1) and mitogen-activated protein kinase kinase kinase kinase 2 (MAP4K2)” (J Med Chem, 2015).

For assay [1], the target named is DNA-PK/Ku70/Ku85 (Homo sapiens) (UniProt P78527+P12956+P13010). The assay can be described thus: Inhibition of DNAPK ATP labeling site harbouring KGGSWIQEINVAEK in human Huh-7 cell lysate at 1 uM by KiNativ Profiling analysis relative to control. Format: subcellular.
The target of assay [2] is Tyrosine-protein kinase Lyn (Homo sapiens, UniProt P07948). The assay is described as follows: Inhibition of LYN (unknown origin) at 1 uM by Ambit Kinomescan binding assay relative to control; values are per cent of control.
Tyrosine-protein kinase Lyn, sequence (P07948 2-512 limits assumed): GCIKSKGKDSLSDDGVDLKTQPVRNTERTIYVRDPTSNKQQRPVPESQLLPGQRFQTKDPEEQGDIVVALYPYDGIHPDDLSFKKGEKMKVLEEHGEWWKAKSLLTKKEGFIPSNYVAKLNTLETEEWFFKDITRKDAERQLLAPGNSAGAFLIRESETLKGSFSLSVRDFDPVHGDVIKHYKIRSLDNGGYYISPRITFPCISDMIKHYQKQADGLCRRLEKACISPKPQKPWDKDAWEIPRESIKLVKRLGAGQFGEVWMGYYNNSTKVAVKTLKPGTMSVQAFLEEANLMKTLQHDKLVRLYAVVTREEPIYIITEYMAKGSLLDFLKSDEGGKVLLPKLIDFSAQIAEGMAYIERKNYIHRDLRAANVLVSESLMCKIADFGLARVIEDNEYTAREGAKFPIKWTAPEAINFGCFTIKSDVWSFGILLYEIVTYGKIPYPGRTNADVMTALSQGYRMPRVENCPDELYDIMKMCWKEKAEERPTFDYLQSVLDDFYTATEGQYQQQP
In assay [3] the target is Cyclin-dependent kinase 11A (Homo sapiens) (UniProt Q9UQ88). The assay is described as follows: Inhibition of CDC2L2 (unknown origin) at 1 uM by Ambit Kinomescan binding assay relative to control; values are per cent of control.
Cyclin-dependent kinase 11A (Homo sapiens), sequence (Q9UQ88 whole entry): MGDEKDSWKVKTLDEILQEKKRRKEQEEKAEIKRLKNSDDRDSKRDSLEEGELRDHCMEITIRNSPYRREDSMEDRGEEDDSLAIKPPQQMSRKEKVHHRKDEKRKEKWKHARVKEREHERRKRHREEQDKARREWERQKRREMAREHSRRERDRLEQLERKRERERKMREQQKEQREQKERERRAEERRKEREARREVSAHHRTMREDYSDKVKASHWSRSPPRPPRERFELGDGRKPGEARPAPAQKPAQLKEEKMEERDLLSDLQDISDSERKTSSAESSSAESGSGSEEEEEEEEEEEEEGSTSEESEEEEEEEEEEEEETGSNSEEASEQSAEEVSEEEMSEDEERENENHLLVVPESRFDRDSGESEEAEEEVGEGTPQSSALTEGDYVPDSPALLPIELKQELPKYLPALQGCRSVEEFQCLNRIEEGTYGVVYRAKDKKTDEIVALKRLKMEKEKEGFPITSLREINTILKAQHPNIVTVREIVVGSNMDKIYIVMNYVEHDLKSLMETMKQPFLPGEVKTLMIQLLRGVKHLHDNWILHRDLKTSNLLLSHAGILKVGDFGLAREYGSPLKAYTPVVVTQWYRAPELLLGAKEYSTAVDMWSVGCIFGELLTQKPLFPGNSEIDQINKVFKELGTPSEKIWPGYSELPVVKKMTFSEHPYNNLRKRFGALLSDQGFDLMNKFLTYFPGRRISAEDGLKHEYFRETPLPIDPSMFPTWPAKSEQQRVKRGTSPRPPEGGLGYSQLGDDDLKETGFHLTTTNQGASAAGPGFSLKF
Assay [4] concerns the target Serine/threonine-protein kinase 38-like (Homo sapiens) (UniProt Q9Y2H1). The assay can be described thus: Inhibition of NDR2 Lys1 labeling site harbouring KDTGHIYAMKILR in human A-375 cells at 5 uM by KiNativ Profiling analysis relative to control. Format: cell-based.
Assay [5] has as its target T1, Inhibitor of nuclear factor kappa-B kinase subunit alpha (Homo sapiens) (UniProt O15111).
T1 sequence (whole entry): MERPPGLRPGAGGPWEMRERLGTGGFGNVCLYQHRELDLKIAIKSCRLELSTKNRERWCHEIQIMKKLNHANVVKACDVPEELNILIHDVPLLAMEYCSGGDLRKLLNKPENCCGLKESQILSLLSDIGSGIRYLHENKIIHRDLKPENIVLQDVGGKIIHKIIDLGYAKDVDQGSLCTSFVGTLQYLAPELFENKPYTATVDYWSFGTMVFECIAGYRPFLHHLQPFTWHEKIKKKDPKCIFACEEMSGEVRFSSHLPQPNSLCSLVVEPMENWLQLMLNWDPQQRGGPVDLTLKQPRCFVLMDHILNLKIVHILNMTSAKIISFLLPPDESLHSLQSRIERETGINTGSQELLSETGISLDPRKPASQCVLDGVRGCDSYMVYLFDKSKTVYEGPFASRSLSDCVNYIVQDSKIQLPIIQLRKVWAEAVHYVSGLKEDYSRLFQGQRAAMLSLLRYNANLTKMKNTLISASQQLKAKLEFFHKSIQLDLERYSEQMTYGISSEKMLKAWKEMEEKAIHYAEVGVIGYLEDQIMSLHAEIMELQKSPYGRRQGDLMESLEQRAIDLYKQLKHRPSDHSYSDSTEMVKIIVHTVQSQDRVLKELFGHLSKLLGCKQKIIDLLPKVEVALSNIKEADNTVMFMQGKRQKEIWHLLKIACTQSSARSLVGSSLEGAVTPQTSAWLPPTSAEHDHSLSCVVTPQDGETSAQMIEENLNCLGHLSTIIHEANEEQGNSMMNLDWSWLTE
The assay is described as follows: Inhibition of IKK-alpha (unknown origin) at 1 uM by Ambit Kinomescan binding assay relative to control; values are per cent of control.

Assay [6] deals with Serine/threonine-protein kinase Nek4 (Homo sapiens) (UniProt P51957). The assay is described as follows: Inhibition of NEK4 K2 labeling site in human Huh-7 cells at 10 uM by KiNativ Profiling analysis relative to control. The format is cell-based.
In assay [7] the test system is Tyrosine-protein kinase ABL1 (Homo sapiens), P00519 [F317L]. The assay is described as follows: Inhibition of ABL1 F317L mutant (unknown origin) at 10 uM by Ambit Kinomescan binding assay relative to control.
Tyrosine-protein kinase ABL1 (Homo sapiens), P00519 [F317L], sequence (P00519 whole entry F317L): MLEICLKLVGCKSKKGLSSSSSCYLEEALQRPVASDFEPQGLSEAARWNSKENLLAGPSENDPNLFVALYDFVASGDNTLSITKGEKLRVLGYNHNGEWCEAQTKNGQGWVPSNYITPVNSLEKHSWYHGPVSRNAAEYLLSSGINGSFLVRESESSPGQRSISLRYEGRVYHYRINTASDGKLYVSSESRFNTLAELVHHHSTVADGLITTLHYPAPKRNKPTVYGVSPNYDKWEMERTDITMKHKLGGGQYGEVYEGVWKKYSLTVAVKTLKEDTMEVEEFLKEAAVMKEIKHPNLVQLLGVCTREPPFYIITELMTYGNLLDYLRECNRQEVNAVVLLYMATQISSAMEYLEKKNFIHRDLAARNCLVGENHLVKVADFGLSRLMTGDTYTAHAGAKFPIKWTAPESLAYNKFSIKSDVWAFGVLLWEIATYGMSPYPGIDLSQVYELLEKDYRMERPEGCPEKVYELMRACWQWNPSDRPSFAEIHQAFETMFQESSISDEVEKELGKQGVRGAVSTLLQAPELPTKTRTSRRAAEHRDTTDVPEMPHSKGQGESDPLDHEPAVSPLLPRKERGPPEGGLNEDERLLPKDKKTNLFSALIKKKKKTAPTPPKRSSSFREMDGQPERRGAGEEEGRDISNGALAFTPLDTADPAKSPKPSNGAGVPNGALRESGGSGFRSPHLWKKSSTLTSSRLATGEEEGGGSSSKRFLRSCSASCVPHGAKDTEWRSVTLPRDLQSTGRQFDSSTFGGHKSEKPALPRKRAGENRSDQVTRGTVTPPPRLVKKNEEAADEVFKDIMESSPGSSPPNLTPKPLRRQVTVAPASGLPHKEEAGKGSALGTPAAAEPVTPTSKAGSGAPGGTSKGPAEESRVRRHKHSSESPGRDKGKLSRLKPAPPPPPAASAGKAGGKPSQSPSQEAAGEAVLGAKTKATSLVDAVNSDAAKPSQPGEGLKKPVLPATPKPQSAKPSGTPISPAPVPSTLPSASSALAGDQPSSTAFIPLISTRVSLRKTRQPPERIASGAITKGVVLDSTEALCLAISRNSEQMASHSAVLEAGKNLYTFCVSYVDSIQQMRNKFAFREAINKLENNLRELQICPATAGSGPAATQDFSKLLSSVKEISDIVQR
Assay [8] has as its target T2, Serine/threonine-protein kinase Chk1 (Homo sapiens) (UniProt O14757).
T2 sequence (whole entry): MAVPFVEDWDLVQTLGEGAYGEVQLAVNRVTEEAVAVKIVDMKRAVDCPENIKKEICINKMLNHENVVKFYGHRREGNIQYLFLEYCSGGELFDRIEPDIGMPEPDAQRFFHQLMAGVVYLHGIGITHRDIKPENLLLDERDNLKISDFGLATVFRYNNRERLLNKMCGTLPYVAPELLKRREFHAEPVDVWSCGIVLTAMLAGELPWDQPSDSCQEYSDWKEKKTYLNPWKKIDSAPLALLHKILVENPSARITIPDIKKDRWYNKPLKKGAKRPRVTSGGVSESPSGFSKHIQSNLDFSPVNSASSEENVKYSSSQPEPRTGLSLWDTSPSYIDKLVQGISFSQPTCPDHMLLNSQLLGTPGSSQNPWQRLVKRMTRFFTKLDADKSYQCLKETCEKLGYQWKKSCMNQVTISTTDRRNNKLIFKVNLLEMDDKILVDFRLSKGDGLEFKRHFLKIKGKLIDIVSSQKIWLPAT
The assay is described as follows: Inhibition of CHK1 K2 labeling site in human Huh-7 cells at 10 uM by KiNativ Profiling analysis relative to control. The format is cell-based.

The target of assay [9] is Dual specificity mitogen-activated protein kinase kinase 2 (Homo sapiens) (UniProt P36507). The assay is described as follows: Inhibition of MAP2K2 Lys2 labeling site in human A-375 cells at 5 uM by KiNativ Profiling analysis relative to control. Format: cell-based.
Dual specificity mitogen-activated protein kinase kinase 2 (Homo sapiens), sequence (P36507 whole entry, canonical isoform): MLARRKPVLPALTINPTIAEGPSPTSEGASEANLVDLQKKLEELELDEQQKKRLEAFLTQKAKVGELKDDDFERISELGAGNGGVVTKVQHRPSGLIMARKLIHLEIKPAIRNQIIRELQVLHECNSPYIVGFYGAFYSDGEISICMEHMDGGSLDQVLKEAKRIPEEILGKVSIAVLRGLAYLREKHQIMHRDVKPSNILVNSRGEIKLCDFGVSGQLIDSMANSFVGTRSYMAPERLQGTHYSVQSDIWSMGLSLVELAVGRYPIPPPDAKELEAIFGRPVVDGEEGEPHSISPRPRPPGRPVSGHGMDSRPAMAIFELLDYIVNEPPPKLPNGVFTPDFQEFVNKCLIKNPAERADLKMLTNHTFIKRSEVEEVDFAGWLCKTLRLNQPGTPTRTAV
For assay [10], the target named is Casein kinase I isoform alpha (Homo sapiens) (UniProt P48729). The assay can be described thus: Inhibition of CK1 alpha K2 labeling site in human Huh-7 cells at 1 uM by KiNativ Profiling analysis relative to control. The format is cell-based.
Casein kinase I isoform alpha (Homo sapiens), sequence (P48729 2-337 limits assumed): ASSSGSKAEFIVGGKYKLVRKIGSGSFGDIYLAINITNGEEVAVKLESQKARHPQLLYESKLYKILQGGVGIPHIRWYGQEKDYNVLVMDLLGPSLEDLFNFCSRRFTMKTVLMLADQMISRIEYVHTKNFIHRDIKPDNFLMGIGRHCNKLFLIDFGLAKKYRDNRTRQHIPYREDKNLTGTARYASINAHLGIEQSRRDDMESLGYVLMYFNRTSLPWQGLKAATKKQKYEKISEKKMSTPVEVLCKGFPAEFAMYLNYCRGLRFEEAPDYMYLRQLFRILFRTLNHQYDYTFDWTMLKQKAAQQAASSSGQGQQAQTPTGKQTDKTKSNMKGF
Assay [11] has as its target Proto-oncogene tyrosine-protein kinase Src (Homo sapiens, UniProt P12931). The assay can be described thus: Inhibition of SRC (unknown origin) at 10 uM by Ambit Kinomescan binding assay relative to control; values are per cent of control.
Assay [12] relates to Receptor-type tyrosine-protein kinase FLT3 (Homo sapiens), P36888 [UNDEFINED MUTATION]. The assay can be described thus: Inhibition of FLT3 ITD mutant (unknown origin) at 10 uM by Ambit Kinomescan binding assay relative to control.
The target in assay [13] is T3, Dual specificity mitogen-activated protein kinase kinase 4 (Homo sapiens) (UniProt P45985).
T3 sequence (whole entry): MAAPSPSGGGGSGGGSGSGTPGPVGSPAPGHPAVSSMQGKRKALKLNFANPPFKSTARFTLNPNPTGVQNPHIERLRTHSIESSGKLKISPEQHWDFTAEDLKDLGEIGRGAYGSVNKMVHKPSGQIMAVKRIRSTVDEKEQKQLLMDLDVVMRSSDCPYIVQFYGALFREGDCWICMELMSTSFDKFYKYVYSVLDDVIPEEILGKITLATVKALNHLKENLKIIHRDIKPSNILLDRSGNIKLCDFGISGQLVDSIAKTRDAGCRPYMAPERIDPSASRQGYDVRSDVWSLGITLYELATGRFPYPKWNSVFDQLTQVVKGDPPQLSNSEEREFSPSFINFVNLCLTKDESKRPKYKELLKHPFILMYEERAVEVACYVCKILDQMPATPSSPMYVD
The assay can be described thus: Inhibition of MAP2K4 Lys1 labeling site in human A-375 cells at 0.5 uM by KiNativ Profiling analysis relative to control. Format: cell-based.

Assay [14] addresses Serine/threonine-protein kinase 17B (Homo sapiens) (UniProt O94768). The assay is described as follows: Inhibition of DRAK2 (unknown origin) at 10 uM by Ambit Kinomescan binding assay.

The source made the active and inactive calls. No cut-off for these calls is given here.

Serine/threonine-protein kinase 38-like (Homo sapiens), sequence (Q9Y2H1 2-464 limits assumed): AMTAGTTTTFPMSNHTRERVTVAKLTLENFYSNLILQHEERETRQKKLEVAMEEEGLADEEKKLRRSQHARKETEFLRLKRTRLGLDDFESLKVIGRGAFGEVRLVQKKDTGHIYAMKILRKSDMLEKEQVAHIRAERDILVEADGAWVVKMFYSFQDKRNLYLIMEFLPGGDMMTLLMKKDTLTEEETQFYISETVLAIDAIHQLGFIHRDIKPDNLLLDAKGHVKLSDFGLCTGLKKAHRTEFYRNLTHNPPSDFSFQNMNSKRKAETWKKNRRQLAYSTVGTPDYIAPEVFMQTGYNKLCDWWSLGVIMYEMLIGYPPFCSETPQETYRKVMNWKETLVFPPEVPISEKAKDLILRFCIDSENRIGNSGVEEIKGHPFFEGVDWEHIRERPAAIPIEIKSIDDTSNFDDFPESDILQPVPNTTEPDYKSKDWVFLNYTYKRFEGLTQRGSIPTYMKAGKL
Proto-oncogene tyrosine-protein kinase Src, sequence (P12931 2-536 limits assumed): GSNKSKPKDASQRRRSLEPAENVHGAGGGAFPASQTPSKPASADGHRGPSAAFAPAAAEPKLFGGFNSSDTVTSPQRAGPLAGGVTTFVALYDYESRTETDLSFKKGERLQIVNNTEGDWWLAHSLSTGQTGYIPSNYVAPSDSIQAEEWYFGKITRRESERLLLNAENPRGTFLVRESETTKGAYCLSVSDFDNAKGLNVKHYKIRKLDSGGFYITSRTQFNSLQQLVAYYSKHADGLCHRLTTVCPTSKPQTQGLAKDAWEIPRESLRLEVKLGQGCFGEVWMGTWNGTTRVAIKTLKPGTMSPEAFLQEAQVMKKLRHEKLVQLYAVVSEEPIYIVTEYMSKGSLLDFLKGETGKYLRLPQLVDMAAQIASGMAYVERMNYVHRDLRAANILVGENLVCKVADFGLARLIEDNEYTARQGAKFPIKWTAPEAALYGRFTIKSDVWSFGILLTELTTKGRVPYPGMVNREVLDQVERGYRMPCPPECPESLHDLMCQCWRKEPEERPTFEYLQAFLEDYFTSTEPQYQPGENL
Serine/threonine-protein kinase 17B (Homo sapiens), sequence (O94768 whole entry): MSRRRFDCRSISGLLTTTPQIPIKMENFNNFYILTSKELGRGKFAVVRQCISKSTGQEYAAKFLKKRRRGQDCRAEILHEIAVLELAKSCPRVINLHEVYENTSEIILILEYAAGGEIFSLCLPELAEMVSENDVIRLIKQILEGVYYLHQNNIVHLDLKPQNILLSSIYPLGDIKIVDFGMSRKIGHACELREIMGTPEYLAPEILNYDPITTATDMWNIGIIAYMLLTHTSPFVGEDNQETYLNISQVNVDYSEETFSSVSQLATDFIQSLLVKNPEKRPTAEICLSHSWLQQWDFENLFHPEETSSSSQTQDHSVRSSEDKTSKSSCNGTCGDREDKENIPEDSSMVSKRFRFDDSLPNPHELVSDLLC

Take `CNc1cc(Oc2cc(C(=O)Nc3cc(N4CCN(C)CC4)cc(C(F)(F)F)c3)ccc2C)ncn1`: the inhibition in assay [1] is -5.7%.

For `CCN1CCN(Cc2ccc(NC(=O)c3ccc(C)c(/C=C/c4cnc5[nH]ccc5c4OC)c3)cc2C(F)(F)F)CC1`, the % of control in assay [2] turned out to be 0.45%. Also, the residual activity in assay [3] was determined as 70%; in assay [5], 2%. Also, in [4], the inhibition is 14.8%.

As to `CCN1CCN(Cc2ccc(NC(=O)c3ccc(C)c(Oc4ccnc5[nH]ccc45)c3)cc2C(F)(F)F)CC1`, the inhibition in assay [6] was 11.4%; in assay [7] it was 0.1%; in assay [8], 3.5%; in [9] it was -10%; in assay [10], 2.9%; in assay [12], 0.7%. Besides, in [13], the inhibition was -4%. The compound further had a residual activity in assay [11] of 0.2%. Besides, in [14], the inhibition entry was “inactive”.

In general, inhibition refers to the relative decrease from the control value, in per cent. What is called residual activity is the signal under treatment as a percentage of the control signal. Higher therefore signals much activity left.
